Drawing on patent publication US20220073536A1 (Rigel Pharmaceuticals, Inc., priority 2003, published 2022), this text covers IC50 for 36 compounds.

Read-outs that look alike come from different tables or passages of the source. Where only a bound is given, the exact number is not on record here.

The test system of this test is cultured human mast cells (CHMC). Description: CHMC low cell density IgE activation: tryptase assay. Format: cell-based. The note with it: IgE activation. The procedure, abridged: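 Tryptase release, fluorogenic substrate, 30 min RT. Prior anti-IgE stimulation of CHMC, 30 min, 37 °C, after 1 hr preincubation at 1000–1500 cells/well in MT; unstimulated wells received MT.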

Setting [1] is: low cell density CHMC, tryptase readout, 8 pt, read-out: LD Tryptase, CHMC, IgE, 8 pt.
Setting [2] is: Homo sapiens, Mast cell, low cell density, 8 pt, read-out: LD Tryptase, CHMC, IgE, 8 pt.
Where [3] appears, read: low cell density, 8 pt, read-out: LD Tryptase, CHMC, IgE, 8 pt.
Setting [4] is: Homo sapiens, Mast cell, low cell density CHMC, tryptase, 3 pt, read-out: LD Tryptase, CHMC, IgE, 3 pt.
Setting [5] is: low cell density CHMC, tryptase, 3 pt, read-out: LD Tryptase, CHMC, IgE, 3 pt.
[6] abbreviates: low cell density CHMC, tryptase, 8 pt, read-out: LD Tryptase, CHMC, IgE, 8 pt.
Where [7] appears, read: Homo sapiens, Mast cell, low cell density CHMC, tryptase, 8 pt, read-out: LD Tryptase, CHMC, IgE, 8 pt.
[8] abbreviates: Homo sapiens, Mast cell, low cell density CHMC, tryptase release, 8 pt, read-out: LD Tryptase, CHMC, IgE, 8 pt.
The mark [9] stands for this setting: Homo sapiens, Mast cell, low cell density, 3 pt, read-out: LD Tryptase, CHMC, IgE, 3 pt.

As to `CNC(=O)COc1cccc(Nc2ncc(F)c(Nc3ccc4c(n3)NC(=O)C(C)(C)O4)n2)c1C` [Compound 1079, N4-(2,2-Dimethyl-3-oxo-4H-5-pyrid [1,4]oxazin-6-yl)-5-fluoro-N2-[2-methyl-3-(N-methylamino)carbonylmethyleneoxyphenyl]-2,4-pyrimidinediamine], the IC50 under setting [1] is less than 10 µM. Regarding `CC1(C)Oc2ccc(Nc3nc(Nc4ccc5[nH]c(N6CCOCC6)nc5c4)ncc3F)cc2NC1=O` [Compound 976, N4-(2,2-Dimethyl-3-oxo-4H-benz[1,4]oxazin-6-yl)-5-fluoro-N2-[2-(4-morpholino)-1H-benzimidazol-5-yl]-2,4-pyrimidinediamine], the IC50 under setting [2] is less than 10 µM. Take `CC(=O)N1CCN(c2cccc(Nc3ncc(F)c(Nc4ccc5c(n4)NC(=O)C(C)(C)O5)n3)c2)CC1` [Compound 1076, N2-[3-(4-Acetylpiperazino)phenyl]-N4-(2,2-dimethyl-3-oxo-4H-5-pyrid[1,4]oxazin-6-yl)-5-fluoro-2,4-pyrimidinediamine]: the IC50 under setting [1] was less than 10 µM.

Consider “N4-[3,4- (Difluoromethylenedioxy)phenyl]-5-fluoro-N2- (3,4,5-trimethoxyphenyl)-2,4-pyrimidinediamine [Compound 561]”, for which, under setting [3], the IC50 was less than 10 µM. In the case of `COc1ccc(Nc2nc(Nc3cc(OC)c(Cl)cc3OC)ncc2F)cc1Cl` [Compound 377], the IC50 under setting [4] was less than 10 µM. With `CCN(CC)CCNC(=O)c1ccc(Nc2ncc(F)c(Nc3ccc(Cl)c(OC)c3)n2)cc1` [Compound 1355, N4-(4-Chloro-3-methoxyphenyl)-N2-(4-[2-[N,N-diethylamino]ethyleneaminocarbonyl]phenyl)-5-fluoro-2,4-pyrimidinediamine], the IC50 is less than 10 µM under setting [5] and less than 10 µM under setting [6]. For `CN1C(=O)C(C)(C)Oc2ccc(Nc3ncc(F)c(Nc4ccc5c(n4)N(C)C(=O)C(C)(C)O5)n3)nc21` [Compound 687, N2,N4-Bis (3-oxo-2,2,4-trimethyl-5-pyrid[1,4]oxazin-6-yl)-5-fluoro-2,4-pyrimidinediamine], the IC50 under setting [5] was less than 10 µM. As for `Cn1c(CS(C)(=O)=O)nc2cc(Nc3ncc(F)c(Nc4ccc5c(n4)NC(=O)C(C)(C)O5)n3)ccc21` [Compound 969, N4-(2,2-Dimethyl-3-oxo-4H-5-pyrido[1,4]oxazin-6-yl)-5-fluoro-N2-{1-methyl-2-[ (methylsulfonyl)methyl]benzimidazol-5-yl}-2,4-pyrimidinediamine], the IC50 by setting is: (low cell density, 3 pt, read-out: LD Tryptase, CHMC, IgE, 3 pt) less than 10 µM; under setting [3], less than 10 µM. With `COc1ccc(Nc2nc(Nc3ccc4cnn(C5CCCCC5)c4c3)ncc2F)cc1Cl` [Compound 746, N4-(3-Chloro-4-methoxyphenyl)-N2-(1-cyclohexylindazol-6-yl)-5-fluoro-2,4-pyrimidinediamine], under setting [4], the IC50 was less than 10 µM. Turning to `CCCCn1ncc2ccc(Nc3ncc(F)c(Nc4ccc(OC)c(Cl)c4)n3)cc21` [Compound 714, N2-(1-n-Butylindazol-6-yl)-N4-(3-chloro-4-methoxyphenyl)-5-fluoro-2,4-pyrimidinediamine], under setting [7], the IC50 was less than 10 µM. On the same count and under the same terms, then `CCCCn1ncc2cc(Nc3ncc(F)c(Nc4ccc5c(c4)NC(=O)C(C)(C)O5)n3)ccc21` [Compound 712, N2-(1-n-Butylindazol-5-yl)-N4-(2,2-dimethyl-3-oxo-4H-benz[1,4]oxazin-6-yl)-5-fluoro-2,4-pyrimidinediamine], with less than 10 µM.

As to `CC1(C)Oc2ccc(Nc3nc(Nc4ccc5cnn(CC6CCCCC6)c5c4)ncc3F)cc2NC1=O` [Compound 724, N2-[1-(Cyclohexylmethyl)indazol-6-yl]-N4-(2,2-dimethyl-3-oxo-4H-benz[1,4]oxazin-6-yl)-5-fluoro-2,4-pyrimidinediamine], the IC50 under setting [7] is less than 10 µM.

On to `Cc1cc(C)cc(Nc2ncc(F)c(Nc3ccc4c(c3)OC(F)(F)C(F)(F)O4)n2)c1` [Compound 362, N2-(3,5-Dimethyphenyl)-5-fluoro-N4-[3,4-(tetrafluoroethylenedioxy)phenyl]-2,4-pyrimidinediamine], for which the IC50 reads like this: under setting [5], less than 10 µM; under setting [6], greater than 10 µM. Consider `C[C@@H]1Oc2ccc(Nc3nc(Nc4ccc5cnn(C)c5c4)ncc3F)cc2NC1=O` [Compound 201], for which, under setting [8], the IC50 is less than 10 µM.

In the case of `CCOC(=O)N1CCC(Nc2nc(Nc3cccc(N4CCN(C)CC4)c3)ncc2F)CC1` [Compound 1226], the IC50 under setting [4] was less than 10 µM. For the compound `CC1(C)Oc2ccc(Nc3nc(Nc4ccc5[nH]c(CN6CCOCC6)nc5c4)ncc3F)cc2NC1=O` [Compound 961, N4-(2,2-Dimethyl-3-oxo-4H-benz[1,4]oxazin-6-yl)-5-fluoro-N2-[2-(4-morpholinomethyl)-1H-benzimidazol-5-yl]-2,4-pyrimidinediamine], under setting [2], the IC50 was less than 10 µM. As to `COc1cc(Nc2ncc(F)c(Nc3ccc4c(n3)NC(=O)C(C)(C)O4)n2)cc(OC)c1OCCN1CCOCC1` [Compound 692, N2-[3,5-Dimethoxy-4-(2-(N-morpholino)ethyloxo)phenyl]-N4-(2,2-dimethyl-3-oxo-4H-5-pyrid[1,4]oxazin-6-yl)-5-fluoro-2,4-pyrimidinediamine], the IC50 runs as follows: under setting [5], less than 10 µM; under setting [6], less than 10 µM. Regarding `C[C@@H]1Oc2ccc(Nc3nc(Nc4ccc5cn[nH]c5c4)ncc3F)cc2NC1=O` [Compound 200], the IC50 under setting [8] was less than 10 µM.

With `CC(=O)N1CCN(c2ccc(Nc3ncc(F)c(Nc4ccc5c(n4)NCCO5)n3)cc2)CC1` [Compound 1134, N2-[4-(4-Acetylpiperazino)phenyl]-N4-(3,4-dihydro-2H,4H-5-pyrid[1,4]oxazin-6-yl)-5-fluoro-2,4-pyrimidinediamine], the IC50 is less than 10 µM under setting [5] and less than 10 µM under setting [6]. Consider `COc1ccc(Nc2ncc(F)c(Nc3ccc4c(c3)NC(=O)C(C)S4)n2)cc1Cl` (centres unmarked) [Compound 280], for which, under setting [8], the IC50 is less than 10 µM. With `CN(c1nc(Cl)ncc1F)C1CCC1` [Compound 1133, 2-Chloro-N4-cyclobutyl-5-fluoro-N4-methyl-4-pyrimidineamine], under setting [4], the IC50 is greater than 10 µM. Still for that read-out and setting: the same measure for `CC1(C)Oc2ccc(Nc3nc(Nc4ccc5ccn(C(N)=O)c5c4)ncc3F)cc2NC1=O` [Compound 348]: greater than 10 µM. `COc1ccc(Nc2ncc(F)c(Nc3ccc4c(c3)NC(=O)[C@@H](C)O4)n2)cc1Cl` [Compound 211]: the IC50 (Homo sapiens, Mast cell, low cell density CHMC, tryptase release, 3 pt, read-out: LD Tryptase, CHMC, IgE, 3 pt) was less than 10 µM.

Consider `CC1(C)Oc2ccc(Nc3nc(Nc4ccc5c(cnn5CC5CCCCC5)c4)ncc3F)cc2NC1=O` [Compound 720, N2-[1-(Cyclohexylmethyl)indazol-5-yl]-N4-(2,2-dimethyl-3-oxo-4H-benz[1,4]oxazin-6-yl)-5-fluoro-2,4-pyrimidinediamine], for which the IC50 under setting [7] was less than 10 µM. As to `CN1CCN(c2ccc(Nc3ncc(F)c(NC4CCCC4)n3)cc2Cl)CC1` [Compound 1195, N2-[3-Chloro-4-(4-methylpiperazino)phenyl]-N4-cyclopentyl-5-fluoro-2,4-pyrimidinediamine], the IC50 under setting [4] was less than 10 µM.

As to `Cc1n[nH]c2cc(Nc3ncc(F)c(Nc4ccc(Cl)c(Cl)c4)n3)ccc12` [Compound 750, N4-(3,4-Dichlorophenyl)-5-fluoro-N2-(3-methylindazol-6-yl)-2,4-pyrimidinediamine], the IC50 is, setting by setting: under setting [4], less than 10 µM; under setting [7], less than 10 µM. For `C[C@@H]1Oc2ccc(Nc3nc(Nc4ccc5c(c4)nc(C(F)(F)F)n5CCCO)ncc3F)cc2NC1=O` [Compound 940], the IC50 under setting [9] is less than 10 µM and the IC50 under setting [2] is less than 10 µM.

For `CNC(=O)c1cc2cccc(Nc3ncc(F)c(Nc4cc(OC)cc(C(F)(F)F)c4)n3)c2[nH]1` [Compound 558, 5-Fluoro-N4-(3-methoxy-5-trifluoromethylphenyl)-N2-[2-(N-methylamino)carbonylindol-7-yl]-2,4-pyrimidinediamine], the IC50 under setting [9] was less than 10 µM. As to `CCOC(=O)N1CCC(Nc2nc(Nc3ccc(N4CCN(C)CC4)c(C)c3)ncc2F)CC1` [Compound 1228], the IC50 under setting [4] was less than 10 µM. On the same count and under the same terms, then `CCN1CCN(c2ccc(Nc3ncc(F)c(NC4CCC4)n3)cn2)CC1` [Compound 1230], with less than 10 µM.

For `CNC(=O)COc1c(C)cc(Nc2ncc(F)c(Nc3cc(OC)cc(OC)c3)n2)cc1C` [Compound 573, N4-(3,5-Dimethoxyphenyl)-N2-[3,5-dimethyl-4-(N-methylamino)carbonylmethyleneoxyphenyl]-5-fluoro-2,4-pyrimidinediamine], the IC50 is less than 10 µM (low cell density CHMC, tryptase release, 3 point, read-out: LD Tryptase, CHMC, IgE, 3 pt) and less than 10 µM (low cell density CHMC, tryptase release, 8 point, read-out: LD Tryptase, CHMC, IgE, 8 pt). For `O=C1CS(=O)(=O)c2ccc(Nc3nc(Nc4ccc5[nH]ncc5c4)ncc3F)cc2N1` [Compound 310], under setting [8], the IC50 was less than 10 µM. On to `COc1ccc(Nc2ncc(F)c(Nc3ccc4c(c3)OCCO4)n2)c(OC)c1OC` [Compound 668, N4-(3,4-Ethylenedioxyphenyl)-5-fluoro-N2-(2,3,4-trimethoxyphenyl)-2,4-pyrimidinediamine], for which the IC50 under setting [4] was less than 10 µM.

Take `COc1cc(Nc2ncc(F)c(Nc3cc(C)cc(C)c3)n2)cc(OC)c1OC` [Compound 553]: the IC50 under setting [2] is less than 10 µM.

`Cc1cc(C)cc(Nc2ncc(F)c(Nc3ccc4c(c3)NC(=O)CS4(=O)=O)n2)c1` [Compound 302]: the IC50 under setting [8] was less than 10 µM.

Take `CC(C)Nc1nc(Nc2ccc(N3CCN(C)CC3)cc2)ncc1F` [Compound 1204]: under setting [4], the IC50 was less than 10 µM.
